Measurements reported in PubChem BioAssay AID1259408 (Genetic Toxicology Data Bank (GENE-TOX), 2018).
Activity calls are given as the source filed them. The rule behind the calls is not given here.

Test system: GENE-TOX genotoxicity assays, various organisms and cells
Experiment: GENE-TOX mutagenicity studies
Details: for call: Assay Type: In vivo carcinogenicity studies
[1] = Species/Cell Type: Salmonella typhimurium (one or more of the five standard strains: TA98, TA100, TA1535, TA1537, and TA1538), Assay Type: Histidine reverse gene mutation, Ames assay, Assay Code: SALT, Evaluation Type: Evaluation A (Pre-1980)
[2] = Species/Cell Type: Escherichia coli polA (W3119 vs P3478), Assay Type: Rec-assay, DNA effects (bacterial DNA repair), Assay Code: RE1T, Evaluation Type: Evaluation A (Pre-1980)
[3] = Species/Cell Type: Human diploid fibroblasts, Assay Type: Unscheduled DNA synthesis (UDS) in vitro, DNA effects, Assay Code: UDHT, Evaluation Type: Evaluation A (Pre-1980)
[4] = Species/Cell Type: Human lymphocytes, Assay Type: Sister-chromatid exchange (SCE) in vitro, Assay Code: SCL+D, Dose Response: With dose response, Evaluation Type: Evaluation B (Post-1980)
[5] = Species/Cell Type: Human, Assay Type: Sister-chromatid exchange (SCE) in vitro, Assay Code: SC1+D, Dose Response: With dose response, Evaluation Type: Evaluation B (Post-1980)
[6] = Species/Cell Type: Nonhuman, Assay Code: CCG+, Evaluation Type: Evaluation A (Pre-1980)
[7] = Species/Cell Type: Nonhuman, Assay Type: Sister-chromatid exchange (SCE) in vitro, Assay Code: SC2+, Evaluation Type: Evaluation B (Post-1980)
[8] = Species/Cell Type: Salmonella typhimurium (one or more of the five standard strains: TA98, TA100, TA1535, TA1537, and TA1538), Assay Type: Histidine reverse gene mutation, Ames assay, Assay Code: SAL-, Evaluation Type: Evaluation A (Pre-1980)
[9] = Species/Cell Type: Saccharomyces cerevisiae, Assay Type: Mitotic recombination or gene conversion, Assay Code: YEH-, Evaluation Type: Evaluation A (Pre-1980)
[10] = Species/Cell Type: Bacillus subtilis (H17 vs M45), Assay Type: Rec-assay, spot test, DNA effects (bacterial DNA repair), Assay Code: REW-, Evaluation Type: Evaluation A (Pre-1980)
[11] = Species/Cell Type: Salmonella typhimurium (one or more of the five standard strains: TA98, TA100, TA1535, TA1537, and TA1538), Assay Type: Histidine reverse gene mutation, Ames assay, Assay Code: SAL+, Evaluation Type: Evaluation A (Pre-1980)

In the case of `O=[N+]([O-])c1cnc[nH]1`, the mutagenic call [1] is reported as “no conclusion”.
With `CC/C(=C(/CC)c1ccc(O)cc1)c1ccc(O)cc1` the mutagenic call [2] was “no conclusion”, the mutagenic call (Species/Cell Type: Fischer rat embryo (RLV/1706) cells, Assay Type: Cell transformation, viral enhanced, Assay Code: CTR+, Evaluation Type: Evaluation A (Pre-1980)) was “active; positive” and the mutagenic call [3] was “no conclusion”. For the same compound, the mutagenic call [4] was “active; positive”, the mutagenic call [5] was “active; positive” and the mutagenic call (Species/Cell Type: Human, Sex: Male, Assay Type: Sperm morphology, Assay Code: SPHT, Evaluation Type: Evaluation A (Pre-1980)) was “no conclusion”. For the same compound, the mutagenic call (Species/Cell Type: Mammalian polychromatic erythrocytes, Assay Type: Micronucleus test, chromosome aberrations, Assay Code: MNT+, Evaluation Type: Evaluation A (Pre-1980)) was “active; positive”, the mutagenic call (Species/Cell Type: Mouse (BALB/c-3T3) cells, Assay Type: Cell transformation, Assay Code: CTB-, Evaluation Type: Evaluation A (Pre-1980)) was “inactive; negative” and the mutagenic call (Species/Cell Type: Mouse lymphoma (L5178Y) cells, Assay Type: Forward gene mutation at the thymidine kinase (TK) locus, chromosome aberrations, Assay Code: L51+, Evaluation Type: Evaluation A (Pre-1980)) was “active; positive”. For the same compound, the mutagenic call (Species/Cell Type: Mouse, Sex: Male, Assay Type: Sperm morphology, Assay Code: SPIT, Evaluation Type: Evaluation A (Pre-1980)) was “no conclusion”, the mutagenic call (Species/Cell Type: Neurospora crassa, Assay Type: Aneuploidy, chromosome aberrations, Assay Code: NEN-, Evaluation Type: Evaluation A (Pre-1980)) was “inactive; negative” and the call [6] was “active; positive”. The mutagenic call [7] was “active; positive”, the mutagenic call (Species/Cell Type: Nonhuman, Assay Type: Sister-chromatid exchange (SCE) in vitro, Assay Code: SC2-, Evaluation Type: Evaluation A (Pre-1980)) was “inactive; negative” and the mutagenic call (Species/Cell Type: Nonhuman, Assay Type: Sister-chromatid exchange (SCE) in vivo, Assay Code: SC3+, Evaluation Type: Evaluation B (Post-1980)) was “active; positive”. For the same compound, the mutagenic call [8] was “inactive; negative”, the mutagenic call (Species/Cell Type: Salmonella typhimurium, Assay Type: Forward and reverse gene mutation, body fluid assay, Assay Code: BFU-, Evaluation Type: Evaluation A (Pre-1980)) was “inactive; negative” and the mutagenic call (Species/Cell Type: Syrian hamster embryo (SHE) cells, Assay Type: Cell transformation, clonal assay, Assay Code: CTCT, Evaluation Type: Evaluation A (Pre-1980)) was “no conclusion”. The mutagenic call (Species/Cell Type: Tradescantia species, Assay Type: Gene mutation, Assay Code: TRM+D, Dose Response: With dose response, Evaluation Type: Evaluation A (Pre-1980)) was “active; positive”.
With `CC(=O)Nc1ccc([C@@H]2O[C@@H]2c2ccccc2)cc1` the mutagenic call [1] was “no conclusion”.
For `CC(C)NCC(O)c1ccc2ccccc2c1` (stereo not given), the mutagenic call [3] was “no conclusion”, the mutagenic call (Species/Cell Type: Mammalian polychromatic erythrocytes, Assay Type: Micronucleus test, chromosome aberrations, Assay Code: MNTT, Evaluation Type: Evaluation B (Post-1980)) was “no conclusion” and the mutagenic call (Species/Cell Type: Mouse, Sex: Male, Assay Type: Sperm morphology, Assay Code: SPI-, Evaluation Type: Evaluation A (Pre-1980)) was “inactive; negative”.
With `CC(C)c1ccccc1` the mutagenic call [9] was “inactive; negative” and the mutagenic call [8] was “inactive; negative”.
In the case of `OCCN(CCO)c1nc(-c2cccs2)nc2ccccc12`, the mutagenic call [1] is reported as “no conclusion”.
For `CS(=O)(=O)OC[C@@H](O)[C@@H](O)[C@H](O)[C@H](O)COS(C)(=O)=O`, the mutagenic call (Species/Cell Type: Drosophila melanogaster, Assay Type: Sex-linked recessive lethal gene mutation, Assay Code: SRL+, Evaluation Type: Evaluation A (Pre-1980)) was “active; positive”.
With `Cc1nccc2c1[nH]c1ccccc12` the mutagenic call [4] was “active; positive”, the mutagenic call [5] was “active; positive” and the mutagenic call [1] was “no conclusion”.
In the case of `Nc1nc(N)c2cc(S(=O)(=O)c3ccc4ccccc4c3)ccc2n1`, the mutagenic call [1] is reported as “no conclusion”.
In the case of `CN(C)c1ccc2cc3ccc(=[N+](C)C)cc-3sc2c1`, the mutagenic call (Species/Cell Type: Saccharomyces cerevisiae, Assay Type: Reverse gene mutation, Assay Code: YER-, Evaluation Type: Evaluation A (Pre-1980)) is reported as “inactive; negative”.
For `[Cl][Fe][Cl]`, the mutagenic call [10] was “inactive; negative” and the mutagenic call (Species/Cell Type: Syrian hamster embryo (SA7/SHE) cells, Assay Type: Cell transformation, viral enhanced, Assay Code: CT7+, Evaluation Type: Evaluation A (Pre-1980)) was “active; positive”.
For `c1cc2ccc3cc4cccc5ccc6cc(c1)c2c3c6c54`, the mutagenic call (Species/Cell Type: Salmonella typhimurium (one or more of the five standard strains: TA98, TA100, TA1535, TA1537, and TA1538), Assay Type: Histidine reverse gene mutation, Ames assay, Assay Code: SAL+*, Activation: With metabolic activation, Evaluation Type: Evaluation A (Pre-1980)) was “active; positive”.
With `CN(C)c1ccc(N(C)C)c2c1C(=O)c1c(O)ccc(O)c1C2=O` the mutagenic call [11] was “active; positive”.
With `OCc1c2c(cc3ccccc13)-c1ccccc1C1OC21` (stereo not given) the mutagenic call (Species/Cell Type: Mouse prostate cells, Assay Type: Cell transformation, Assay Code: CTM+, Evaluation Type: Evaluation A (Pre-1980)) was “active; positive”.
With `CC#CC(OC(=O)NC1CCCCC1)(c1ccccc1)c1ccccc1` the mutagenic call [11] was “active; positive”.
For `Cc1c2c(c(C)c3ccccc13)C(O)C(O)c1ccccc1-2` (stereo not given), the mutagenic call (Species/Cell Type: Chinese hamster lung (V79) cells, Assay Type: Forward gene mutation at the HPRT or ouabain locus, Assay Code: V79-*, Activation: With metabolic activation, Evaluation Type: Evaluation A (Pre-1980)) was “inactive; negative”.
`CNC(=O)Oc1cccc2c1OC(C)(C)C2` was tested, and the mutagenic call (Species/Cell Type: Bacillus subtilis (H17 vs M45), Assay Type: Rec-assay, spot test, DNA effects (bacterial DNA repair), Assay Code: REWT, Evaluation Type: Evaluation A (Pre-1980)) was “no conclusion”, the mutagenic call (Species/Cell Type: Drosophila melanogaster, Assay Type: Sex-linked recessive lethal gene mutation, Assay Code: SRL-, Evaluation Type: Evaluation A (Pre-1980)) was “inactive; negative” and the mutagenic call (Species/Cell Type: Escherichia coli WP2 UVRA, Assay Type: Tryptophan reverse gene mutation, Assay Code: WPU-*, Activation: With metabolic activation, Evaluation Type: Evaluation A (Pre-1980)) was “inactive; negative”. The mutagenic call [2] was “no conclusion”, the mutagenic call (Species/Cell Type: Hordeum vulgare (barley), Assay Type: Chromosome aberrations, Assay Code: HOC+D, Dose Response: With dose response, Evaluation Type: Evaluation A (Pre-1980)) was “active; positive” and the mutagenic call (Species/Cell Type: Human diploid fibroblasts, Assay Type: Unscheduled DNA synthesis (UDS) in vitro, DNA effects, Assay Code: UDH-, Evaluation Type: Evaluation A (Pre-1980)) was “inactive; negative”. For the same compound, the mutagenic call [9] was “inactive; negative” and the mutagenic call [8] was “inactive; negative”.
In the case of `[Cl][Ni][Cl]`, the mutagenic call [10] is reported as “inactive; negative”, the mutagenic call (Species/Cell Type: Escherichia coli WP2, Assay Type: Tryptophan reverse gene mutation, Assay Code: WP2-, Evaluation Type: Evaluation A (Pre-1980)) is reported as “inactive; negative” and the mutagenic call (Species/Cell Type: Human lymphocytes, Assay Type: Sister-chromatid exchange (SCE) in vitro, Assay Code: SCL+, Evaluation Type: Evaluation B (Post-1980)) is reported as “active; positive”. For the same compound, the mutagenic call (Species/Cell Type: Human, Assay Type: Sister-chromatid exchange (SCE) in vitro, Assay Code: SC1+, Evaluation Type: Evaluation B (Post-1980)) was “active; positive”, the mutagenic call [7] was “active; positive” and the mutagenic call (Species/Cell Type: Salmonella typhimurium, Serratia marcesens, Assay Type: Forward and reverse gene mutation, host-mediated assay, Assay Code: HM2T, Evaluation Type: Evaluation A (Pre-1980)) was “no conclusion”.
For `CC(C)C[C@@H](N)[C@H](O)C(=O)N[C@H](C(=O)N[C@H](C(=O)N[C@@H](CC(=O)O)C(=O)O)C(C)C)C(C)C`, the mutagenic call (Species/Cell Type: Human, Assay Type: Sister-chromatid exchange (SCE) in vitro, Assay Code: SC1T, Evaluation Type: Evaluation B (Post-1980)) was “no conclusion”.
For `CSc1nnc(C(C)(C)C)c(=O)n1N`, the mutagenic call (Species/Cell Type: Saccharomyces cerevisiae, Assay Type: Mitotic recombination or gene conversion, Assay Code: YEC-, Evaluation Type: Evaluation A (Pre-1980)) was “inactive; negative”.
`CCN(CC)C(=S)S` was tested, and the call (Species/Cell Type: Nonhuman, Assay Code: CCG-, Evaluation Type: Evaluation A (Pre-1980)) was “inactive; negative” and the mutagenic call (Species/Cell Type: Vicia faba, Assay Type: Chromosome aberrations, Assay Code: VIC+, Evaluation Type: Evaluation A (Pre-1980)) was “active; positive”.
In the case of `C[S-].C[S-].N#[O+].N#[O+].N#[O+].N#[O+].[Fe].[Fe]`, the mutagenic call (Species/Cell Type: Nonhuman, Assay Type: Sister-chromatid exchange (SCE) in vitro, Assay Code: SC2T, Evaluation Type: Evaluation B (Post-1980)) is reported as “no conclusion”.
In the case of `CC(=O)Nc1nc(-c2ccc([N+](=O)[O-])o2)cs1`, the mutagenic call (Species/Cell Type: Bacillus subtilis (H17 vs M45), Assay Type: Rec-assay, spot test, DNA effects (bacterial DNA repair), Assay Code: REW+, Evaluation Type: Evaluation A (Pre-1980)) is reported as “active; positive”, the mutagenic call (Species/Cell Type: Escherichia coli WP2, Assay Type: Tryptophan reverse gene mutation, Assay Code: WP2+, Evaluation Type: Evaluation A (Pre-1980)) is reported as “active; positive” and the mutagenic call (Species/Cell Type: Escherichia coli WP2 UVRA, Assay Type: Tryptophan reverse gene mutation, Assay Code: WPU-, Evaluation Type: Evaluation A (Pre-1980)) is reported as “inactive; negative”. The call [6] was “active; positive”, the mutagenic call (Species/Cell Type: Nonhuman, Assay Type: Sister-chromatid exchange (SCE) in vitro, Assay Code: SC2+D, Dose Response: With dose response, Evaluation Type: Evaluation B (Post-1980)) was “active; positive” and the mutagenic call [11] was “active; positive”.
